Tests used:
Type in all cases: cell-based, Human
H460 cells = test: CCK8 cell viability and IC50 measurement, H460; settings: for Cell viability: H460, 25 μM; for IC50: H460, 72 h, CCK8
Experimental: (§1) Human lung cancer cell line H460 and H1299, human liver normal cell line LO2 were bought from ATCC. DMEM or RPMI 1640 was used as the cell culture medium with 10% FBS and 1% penicillin/streptomycin. Cells were maintained in an incubator with 37°C humidified atmosphere and 5% CO2.
(§2) Cell viability and IC50 values were determined using the CCK8 assay kit. Cells were seeded at a density of 5 × 10^3 cells per well in a 96-well plate. After overnight adhesion, 25 μM of compounds or vehicle control DMSO which all dissolved in the culture medium were added to cells and cultured for 48 h or 72 h. CCK8 reagent, dissolved in the medium, was then added to cells and incubated for 1 h. The absorbance at 450 nm was measured using a microplate spectrophotometer (Thermo). Cell viability was calculated, with the untreated group taken as 100%. For IC50 values determination, different concentrations (0, 0.4 μM, 2 μM, 10 μM, 20 μM, 50 μM) of compounds were added to cells for 72 h. Subsequent CCK8 measurement allowed the calculation of inhibition percentage based on cell viability. The IC50 values were computed by the prism statistical software. The CCK-8 assay was conducted three times and the repetitions in each time were at least three. All the values were expressed as Mean ± SD, p < 0.05 was considered statistically significant.
(§3) In order to assess the potential cytotoxicity of the synthesized compounds, we selected two types of human non-small-cell lung cancer cell line, H460 and H1299. Cell viability and cytotoxicity were evaluated using the CCK8 assay ([Xu et al., 2018]). The cells were treated with 25 μM of compounds 5a-5s and 6a-6i for 48h and 72 h. […] In contrast, no compounds managed to reduce H1299 cell viability to less than 50%, yet compounds 5i, 5m, 6h and 6i achieved cell viability rates below 70%. […] It is worth noting that minimal effects on the cell viability of the normal cell line LO2 were observed when exposed to these compounds. Further, we determined the half-maximal inhibitory concentration (IC50) of selected compounds against H460 cells, the results of which were summarized in Table 3.

H1299 cells = test: CCK8 cell viability, H1299; settings: H1299, 25 μM
Experimental: as §1, §2, §3

LO2 cells = test: CCK8 cell viability, normal cell line LO2; settings: LO2 normal liver cells, 25 μM, 72 h
Experimental: as §1, §2, §3

Structure (SMILES) | IC50 (H460 cells) [µM] | Cell viability (H460 cells; 48 h) [%] | Cell viability (H460 cells; 72 h) [%] | Cell viability (H1299 cells; 48 h) [%] | Cell viability (H1299 cells; 72 h) [%] | Cell viability (LO2 cells) [%] | cell proliferation inhibition rate (H460 cells; H460, 72-h treatment)
COc1ccccc1-n1cc(-c2cccc(NC(=O)c3cn4c(c(OC)c3=O)C(=O)N3C(C)COC3C4)c2)nn1 (centres unmarked) [Compound 5g] | – | 82.94 | 99.43 | 117.81 | 103.45 | 128.56 | –
COc1c2n(cc(C(=O)Nc3cccc(-c4cn(-c5ccc(F)cc5)nn4)c3)c1=O)CC1OCC(C)N1C2=O (centres unmarked) [Compound 5n] | – | 99.22 | 105.04 | 115.05 | 91.74 | 127.86 | –
COc1c2n(cc(C(=O)Nc3cccc(-c4cn(-c5cc(C(F)(F)F)ccc5C(F)(F)F)nn4)c3)c1=O)CC1OCC(C)N1C2=O (centres unmarked) [Compound 5k] | 36 ± 2.73 | 94.55 | 52.15 | 113.47 | 91.70 | 124.51 | –
COc1c2n(cc(C(=O)Nc3cccc(-c4cn(-c5ccccc5C)nn4)c3)c1=O)CC1OCC(C)N1C2=O (centres unmarked) [Compound 5c] | 9.65 ± 0.04 | – | – | 94.81 | 83.51 | 73.79 | exceed 50%
COc1c2n(cc(C(=O)Nc3cccc(-c4cn(-c5cccc(C(F)(F)F)c5)nn4)c3)c1=O)CC1OCC(C)N1C2=O (centres unmarked) [Compound 5h] | > 100 | 97.75 | 75.09 | 114.98 | 93.73 | 101.34 | –
COc1c2n(cc(C(=O)Nc3cccc(-c4cn(-c5cccc(Cl)c5)nn4)c3)c1=O)CC1OCC(C)N1C2=O (centres unmarked) [Compound 5q] | > 100 | 99.40 | 104.14 | 107.23 | 88.40 | 125.35 | –
COc1c2n(cc(C(=O)Nc3cccc(-c4cn(-c5ccccc5Br)nn4)c3)c1=O)CC1OCC(C)N1C2=O (centres unmarked) [Compound 5m] | > 50 | 96.50 | 94.59 | 112.42 | – | 111.3 | –
COc1cccc(Cn2cc(-c3cccc(NC(=O)c4cn5c(c(OC)c4=O)C(=O)N4C(C)COC4C5)c3)nn2)c1 (centres unmarked) [Compound 6g] | – | 93.36 | 95.01 | 91.06 | 94.37 | 130.54 | –
COc1c2n(cc(C(=O)Nc3cccc(-c4cn(Cc5ccccc5C)nn4)c3)c1=O)CC1OCC(C)N1C2=O (centres unmarked) [Compound 6c] | – | 105.51 | 101.80 | 110.58 | 97.63 | 103.41 | –
COc1c2n(cc(C(=O)Nc3cccc(-c4cn(-c5ccccc5I)nn4)c3)c1=O)CC1OCC(C)N1C2=O (centres unmarked) [Compound 5o] | – | 101.09 | 104.29 | 120.83 | 86.67 | 100.11 | –
COc1c2n(cc(C(=O)Nc3cccc(-c4cn(-c5cc(C(F)(F)F)cc(C(F)(F)F)c5)nn4)c3)c1=O)CC1OCC(C)N1C2=O (centres unmarked) [Compound 5e] | > 100 | 101.34 | 101.97 | 103.75 | 99.34 | 129.12 | –

More lines, main results first:

IC50 (H460 cells) [µM] | Structure (SMILES) | Cell viability (H460 cells; 48 h) [%] | Cell viability (H460 cells; 72 h) [%] | Cell viability (H1299 cells; 48 h) [%] | Cell viability (H1299 cells; 72 h) [%] | Cell viability (LO2 cells) [%] | cell proliferation inhibition rate (H460 cells; H460, 72-h treatment)
22.88 ± 0.13 | COc1c2n(cc(C(=O)Nc3cccc(-c4cn(Cc5ccccc5C(F)(F)F)nn4)c3)c1=O)CC1OCC(C)N1C2=O (centres unmarked) [Compound 6e] | 77.85 | 60.74 | 127.00 | 92.15 | 127.55 | –
> 50 | COc1c2n(cc(C(=O)Nc3cccc(-c4cn(Cc5ccccc5)nn4)c3)c1=O)CC1OCC(C)N1C2=O (centres unmarked) [Compound 6a] | 99.81 | 118.33 | 118.73 | 101.39 | 127.44 | –

From publication PMC10547880, “Synthesis and biological evaluation of novel 1,2,3-triazole hybrids of cabotegravir: identification of potent antitumor activity against lung cancer” (Frontiers in Pharmacology, 2023)
